From US20100183561A1, “Biological therapeutic compositions and methods thereof” (ARTERIOCYTE MEDICAL SYSTEMS, priority 2008, published 2010)
Counter-ions that a name gives are not always drawn.

Legend:
[1] = Thrombin activation of antibiotic-enriched bovine PRP, visual observation; assay type: physicochemical; conditions: for Observation of PRP/Platelet Gel: gelling / Observation of PRP/Platelet Gel: precipitation or aggregation: antibiotic ~75 ug/ml final in bovine PRP, 10% CaCl2 solution, ambient conditions; for Effect on activation of PRP and gel formation / properties of PRP: smaller quantities (sufficient for local application) dissolved in CaCl2 solution, bovine PRP
Text: Study Design: This example evaluated the appearance and characteristics of antibiotics-enriched bovine PRP. There were two variables in this study: 1) choice of antibiotics, and 2) presence/absence of thrombin. Two antibiotics were used to couple PRP in this study: 1) Vancomycin and 2) Cefazolin. Thrombin, a common reagent for activation of fibrinogen in PRP (for use as a gel would sealant), was used to activate platelet gel-antibiotics/PRP mixture formation, and compared to a mixture not activated by thrombin.
Preparation of Bovine PRP: 60 ml of Bovine blood (anti-coagulant added) was processed with the Magellan® system to obtain 6 ml of bovine PRP. Bovince PRP was stored in a refrigerator.
Dissolution of Antibiotics in CaCl2 solution: Initial target dose of antibiotics was based on body weight and was estimated at 1.5 mg/kg body weight per unit of PRP, or 105 mg for a 70 kg adult. 3 ml PRP was prepared from 60 ml Bovine Blood with the Magellan® System, resulting in a 2× standard concentration. 105 mg was dissolved into 3 mL of saline solution. 1 ml each of PRP Vancomycin/saline solution were combined to yield a product approximating standard PRP, containing desired amount of Vancomycin.
Vancomycin: To achieve the revised target dose of 75 ug/ml, 5 mg antibiotic was added per 6 ml 10% w/v CaCl2 solution used to reconstitute thrombin for activation of 6 ml PRP.
5 mg Vancomycin hydrochloride (Acros Organics) was dissolved into 6 ml 10% w/v CaCl2 solution at ambient conditions for a concentration of 833 ug/ml. Agitation was necessary to properly dissolve Vancomycin due to its large grain sizes.
Cefazolin: 5 mg Cefazolin hydrochloride (Alexis) was dissolved into 6 ml 10% w/v CaCl2 solution at ambient conditions for a concentration of 833 ug/ml. Slight agitation was necessary to dissolve Cefazolin.
1 kU of bovine thrombin was dissolved into 1 ml of Antibiotic/10% w/v CaCl2 solution or Vancomycin/10% w/v CaCl2 solution.
Preparation of Cefazolin- or Vancomycin-Coupled PRP: 0.6 ml of the bovine thrombin/Vancomycin/10% w/v CaCl2 solution was added to 6 ml of bovine PRP to obtain 6.6 ml of Vancomycin coupled PRP gel to produce an activated gel with a final concentration of ˜75 ug/ml.
For controls, 0.6 ml of the Vancomycin/10% w/v CaCl2 solution (without thrombin) was added to 6 ml of bovine PRP to obtain 6.6 ml of Vancomycin coupled PRP gel to produce an activated gel with a final concentration of ˜75 ug/ml.
Evaluation of Cefazolin- or Vancomycin-Coupled PRP: After mixing, the antibiotic-enriched PRP with and without thrombin were left on bench top. Visual observation was used to evaluate the appearance and characteristics of the mixture material. This process was conducted under ambient conditions.

[2] = as above; assay type: physicochemical; conditions: initial dose 1.05 g per unit PRP, 1 ml of 2× concentration bovine PRP + Vancomycin solution, no thrombin, Hydrochloride

| SMILES | Observation of PRP/Platelet Gel: gelling ([1]; Thrombin: Yes) | Observation of PRP/Platelet Gel: precipitation or aggregation ([1]; Thrombin: Yes) | Effect on activation of PRP and gel formation / properties of PRP [1] | Observation of PRP/Platelet Gel: precipitation or aggregation ([1]; Thrombin: No) | Appearance of PRP combined with antibiotic solution at initial (systemic-order) dose [2] | Appearance of PRP combined with antibiotic solution at initial (systemic-order) dose ([2]; listed as vancomycin) |
| --- | --- | --- | --- | --- | --- | --- |
| Cc1nnc(SCC2=C(C(=O)[O-])N3C(=O)[C@@H](NC(=O)Cn4cnnn4)[C@H]3SC2)s1.[Na+] [Cefazolin, Cefazolin Sodium Salt] | Mixture gels immediately within minutes, | no precipitation or aggregation observed. | did not appear to alter the properties PRP | – | – | – |
| CN[C@H](CC(C)C)C(=O)N[C@H]1C(=O)N[C@@H](CC(N)=O)C(=O)N[C@H]2C(=O)N[C@H]3C(=O)N[C@H](C(=O)N[C@H](C(=O)O)c4cc(O)cc(O)c4-c4cc3ccc4O)[C@H](O)c3ccc(c(Cl)c3)Oc3cc2cc(c3O[C@@H]2O[C@H](CO)[C@@H](O)[C@H](O)[C@H]2O[C@H]2C[C@](C)(N)[C@H](O)[C@H](C)O2)Oc2ccc(cc2Cl)[C@H]1O [Vancomycin, Vancomycin Hydrochloride] | Mixture gels immediately within minutes; | – | did not interfere with or premarturely initiate activation of PRP and gel formation | white solid precipitates forming upon | Immediate aggregation of PRP into a solid | rapid formation of heterogenous solids |
